Test results: ChEMBL document CHEMBL1201862, “PubChem BioAssay data set” (2004)
Counter-ions that a name gives are not always drawn. The source made the active and inactive calls.

Key:
BJ = assay: cytotoxicity toward Ras-transformed BJeLR fibroblasts, dose response, cell-based, alamar blue fluorescence, cherrypicked samples (AID 2631); assay type: functional; conditions: Homo sapiens;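 note: confirmatory dose-response assay in RAS-dependent BJ fibroblasts engineered with TERT, LT and ST, with cytotoxicity read by fluorescence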
[1] = cytotoxicity in HEK-293T NF-kB-Luc cells, dose response, cytotoxicity control for B/T-cell NF-kB inhibitor project, cell-based, uHTS hits (AID 489019); assay type: functional;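 note: IC50 reflects cytotoxicity as loss of cell viability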
[2] = microbe, parasite or virus in culture; assay type: functional; conditions: Mycobacterium tuberculosis
Cannabinoid receptor 2 [3] = target: T1, Cannabinoid receptor 2 (Homo sapiens, UniProt P34972); assay: SAR analysis of antagonists of the Cannabinoid Receptor 2 using an Image-Based Assay - Set 3. [Related pubchem assays (depositor defined):AID2013, AID2026]; assay type: functional
T1 sequence (P34972 whole entry): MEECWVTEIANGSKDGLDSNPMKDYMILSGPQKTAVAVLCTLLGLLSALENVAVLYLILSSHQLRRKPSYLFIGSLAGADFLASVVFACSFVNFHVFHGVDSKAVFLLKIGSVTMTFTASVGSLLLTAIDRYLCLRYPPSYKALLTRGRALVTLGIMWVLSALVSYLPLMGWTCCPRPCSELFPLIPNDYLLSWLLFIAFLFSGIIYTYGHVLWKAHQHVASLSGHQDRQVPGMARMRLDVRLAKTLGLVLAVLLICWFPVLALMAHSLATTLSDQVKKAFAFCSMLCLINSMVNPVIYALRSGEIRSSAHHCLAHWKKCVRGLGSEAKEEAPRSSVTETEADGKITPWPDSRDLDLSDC

[4] = target: T2, G-protein coupled receptor 35 (Homo sapiens, UniProt Q9HC97); assay: SAR analysis of Antagonists of the GPR35 Receptor using an Image-Based Assay - Set 6. [Related pubchem assays (depositor defined):AID2013, AID2026]; assay type: functional
T2 sequence (Q9HC97 whole entry): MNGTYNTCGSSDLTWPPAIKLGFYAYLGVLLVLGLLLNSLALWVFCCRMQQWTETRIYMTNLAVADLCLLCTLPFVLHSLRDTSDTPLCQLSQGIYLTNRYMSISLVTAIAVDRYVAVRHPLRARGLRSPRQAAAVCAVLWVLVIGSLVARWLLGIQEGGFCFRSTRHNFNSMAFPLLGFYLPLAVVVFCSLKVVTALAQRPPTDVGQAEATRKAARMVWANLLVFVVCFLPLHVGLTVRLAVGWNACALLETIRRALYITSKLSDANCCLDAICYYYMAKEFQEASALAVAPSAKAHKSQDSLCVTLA

[5] = target: G-protein coupled receptor 55 (Homo sapiens, UniProt Q9Y2T6); assay: SAR Analysis of Selective Antagonists of GPR55 using an Image-Based Assay - Set 4. [Related pubchem assays (depositor defined):AID2013, AID2026]; assay type: functional;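 note: antagonism of response to 5 µM lysophosphatidylinositol agonist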
G-protein coupled receptor 55, sequence (Q9Y2T6 whole entry): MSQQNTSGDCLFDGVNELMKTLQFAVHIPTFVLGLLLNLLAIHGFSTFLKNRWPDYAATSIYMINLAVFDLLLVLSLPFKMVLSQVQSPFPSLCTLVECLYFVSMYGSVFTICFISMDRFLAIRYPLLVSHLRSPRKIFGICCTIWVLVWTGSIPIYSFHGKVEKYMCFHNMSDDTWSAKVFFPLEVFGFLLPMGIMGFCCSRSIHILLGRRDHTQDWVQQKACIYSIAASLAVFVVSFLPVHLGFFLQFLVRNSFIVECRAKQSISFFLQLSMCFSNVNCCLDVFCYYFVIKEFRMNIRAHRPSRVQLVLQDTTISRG

Cannabinoid receptor 1 [6] = target: T3, Cannabinoid receptor 1 (Homo sapiens, UniProt P21554); assay: SAR analysis of antagonists of the Cannabinoid Receptor 1 using an Image-Based Assay - Set 4. [Related pubchem assays (depositor defined):AID2013, AID2026]; assay type: functional
T3 sequence (P21554 whole entry): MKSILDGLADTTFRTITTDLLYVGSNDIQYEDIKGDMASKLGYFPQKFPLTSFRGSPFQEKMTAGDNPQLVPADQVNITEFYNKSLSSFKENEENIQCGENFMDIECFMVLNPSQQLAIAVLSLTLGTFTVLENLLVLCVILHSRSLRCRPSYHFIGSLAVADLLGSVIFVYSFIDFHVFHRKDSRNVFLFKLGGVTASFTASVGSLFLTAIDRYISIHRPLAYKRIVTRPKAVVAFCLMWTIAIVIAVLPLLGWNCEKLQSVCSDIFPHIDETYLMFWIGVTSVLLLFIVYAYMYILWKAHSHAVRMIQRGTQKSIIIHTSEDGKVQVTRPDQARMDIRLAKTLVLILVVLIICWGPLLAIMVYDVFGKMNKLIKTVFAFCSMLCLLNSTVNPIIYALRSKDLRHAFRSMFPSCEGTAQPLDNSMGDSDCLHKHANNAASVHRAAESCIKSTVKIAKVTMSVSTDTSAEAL

Cannabinoid receptor 2 [7] = target: T1, Cannabinoid receptor 2; assay: SAR analysis of agonists of the Cannabinoid Receptor 2 using an Image-Based Assay - Set 3. [Related pubchem assays (depositor defined):AID2013, AID2026]; assay type: functional
Cannabinoid receptor 1 [8] = target: T3, Cannabinoid receptor 1; assay: SAR analysis of agonists of the Cannabinoid Receptor 1 using an Image-Based Assay - Set 4. [Related pubchem assays (depositor defined):AID2013, AID2026]; assay type: functional
[9] = target: T2, G-protein coupled receptor 35; assay: SAR analysis of Agonists of the GPR35 Receptor using an Image-Based Assay - Set 4. [Related pubchem assays (depositor defined):AID2013, AID2026]; assay type: functional
Cytochrome P450 1A2 = target: T4, Cytochrome P450 1A2 (Homo sapiens, UniProt P05177);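 note: PubChem cytochrome P450 panel assay, CYP1A2 panel member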
T4 sequence (P05177 whole entry): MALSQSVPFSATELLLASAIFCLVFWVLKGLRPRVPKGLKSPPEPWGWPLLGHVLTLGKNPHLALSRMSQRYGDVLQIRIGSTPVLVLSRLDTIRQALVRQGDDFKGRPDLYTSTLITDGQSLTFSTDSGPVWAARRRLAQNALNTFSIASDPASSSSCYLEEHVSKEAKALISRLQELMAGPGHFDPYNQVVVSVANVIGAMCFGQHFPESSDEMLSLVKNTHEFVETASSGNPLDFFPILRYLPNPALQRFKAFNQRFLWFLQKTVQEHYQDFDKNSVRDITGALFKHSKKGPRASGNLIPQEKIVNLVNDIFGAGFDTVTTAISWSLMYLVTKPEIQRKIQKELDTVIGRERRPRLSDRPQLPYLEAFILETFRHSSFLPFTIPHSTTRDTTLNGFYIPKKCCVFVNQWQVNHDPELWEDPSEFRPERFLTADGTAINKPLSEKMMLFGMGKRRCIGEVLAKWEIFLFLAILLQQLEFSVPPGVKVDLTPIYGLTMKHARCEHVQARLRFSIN

[10] = CellTiter-Glo luminescent dose response of DLD-1 viability loss (AID 1117352); assay type: functional
[11] = cytotoxicity toward HT-29 cells – cell-based, CellTiter-Glo luminescence, IC50, dose response (AID 1117330); assay type: functional
[12] = cytotoxicity toward HCT116 cells – cell-based, CellTiter-Glo luminescence, IC50, dose response (AID 1117332); assay type: functional; conditions: HCT-116
[13] = Concentration-dependent survival of SW480 colon cancer line, luminescence detection with CellTiter-Glo, half-maximal inhibitory concentration (AID 1117338); assay type: functional
[14] = HeLa 4N DNA content increase, dose response, cell-based, IC50 (AID 1117351); assay type: functional
Cytochrome P450 2D6 [15] = target: T5, Cytochrome P450 2D6 (Homo sapiens, UniProt P10635);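 note: CYP2D6 member of a cytochrome P450 panel assay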
T5 sequence (P10635 whole entry): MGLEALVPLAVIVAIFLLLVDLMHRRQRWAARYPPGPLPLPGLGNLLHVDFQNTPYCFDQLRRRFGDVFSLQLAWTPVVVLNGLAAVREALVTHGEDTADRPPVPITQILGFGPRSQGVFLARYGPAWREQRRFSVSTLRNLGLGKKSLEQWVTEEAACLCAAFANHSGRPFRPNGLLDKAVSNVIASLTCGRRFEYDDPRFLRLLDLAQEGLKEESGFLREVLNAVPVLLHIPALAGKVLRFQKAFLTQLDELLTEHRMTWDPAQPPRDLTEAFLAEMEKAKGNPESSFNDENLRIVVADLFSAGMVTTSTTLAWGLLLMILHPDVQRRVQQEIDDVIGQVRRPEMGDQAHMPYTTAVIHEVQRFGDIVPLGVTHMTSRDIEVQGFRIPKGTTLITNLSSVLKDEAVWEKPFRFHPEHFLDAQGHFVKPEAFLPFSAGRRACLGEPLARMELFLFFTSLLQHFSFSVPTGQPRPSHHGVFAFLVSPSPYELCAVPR

[16] = HeLa 2N DNA content increase, dose response, cell-based, IC50 (AID 1117349); assay type: functional
[17] = HCT116 cell viability decrease, GSK3B pretreatment – CellTiter-Glo, IC50, dose response (AID 1117339); assay type: functional; conditions: HCT-116
[18] = RKO cell viability reduction, dose response, CellTiter-Glo luminescence (AID 1117322); assay type: functional
[19] = SNU-C1 cell viability reduction, dose response, CellTiter-Glo luminescence (AID 1117323); assay type: functional, cell-based
Cytochrome P450 3A4 = Cytochrome P450 3A4 (Homo sapiens, UniProt P08684);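 note: CYP3A4 tested as one member of a cytochrome P450 panel screen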
Cytochrome P450 3A4, sequence (P08684 whole entry): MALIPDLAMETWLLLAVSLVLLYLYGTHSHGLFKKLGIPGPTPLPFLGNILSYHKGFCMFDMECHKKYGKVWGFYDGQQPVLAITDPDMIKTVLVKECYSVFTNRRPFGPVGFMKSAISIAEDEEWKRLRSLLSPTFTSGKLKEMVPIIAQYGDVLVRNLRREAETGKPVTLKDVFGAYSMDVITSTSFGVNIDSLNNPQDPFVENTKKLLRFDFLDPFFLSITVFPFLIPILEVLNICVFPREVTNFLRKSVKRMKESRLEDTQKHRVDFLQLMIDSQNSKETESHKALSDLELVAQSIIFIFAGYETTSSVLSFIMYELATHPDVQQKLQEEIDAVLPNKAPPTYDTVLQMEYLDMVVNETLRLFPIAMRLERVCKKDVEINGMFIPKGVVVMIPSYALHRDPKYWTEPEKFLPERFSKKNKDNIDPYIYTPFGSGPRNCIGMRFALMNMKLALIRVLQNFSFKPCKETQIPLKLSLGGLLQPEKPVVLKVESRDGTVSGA

Cytochrome P450 2D6 [20] = target: T5, Cytochrome P450 2D6; remark: listed apart in the source
Cytochrome P450 2C9 = Cytochrome P450 2C9 (Homo sapiens, UniProt P11712)
Cytochrome P450 2C9, sequence (P11712 whole entry): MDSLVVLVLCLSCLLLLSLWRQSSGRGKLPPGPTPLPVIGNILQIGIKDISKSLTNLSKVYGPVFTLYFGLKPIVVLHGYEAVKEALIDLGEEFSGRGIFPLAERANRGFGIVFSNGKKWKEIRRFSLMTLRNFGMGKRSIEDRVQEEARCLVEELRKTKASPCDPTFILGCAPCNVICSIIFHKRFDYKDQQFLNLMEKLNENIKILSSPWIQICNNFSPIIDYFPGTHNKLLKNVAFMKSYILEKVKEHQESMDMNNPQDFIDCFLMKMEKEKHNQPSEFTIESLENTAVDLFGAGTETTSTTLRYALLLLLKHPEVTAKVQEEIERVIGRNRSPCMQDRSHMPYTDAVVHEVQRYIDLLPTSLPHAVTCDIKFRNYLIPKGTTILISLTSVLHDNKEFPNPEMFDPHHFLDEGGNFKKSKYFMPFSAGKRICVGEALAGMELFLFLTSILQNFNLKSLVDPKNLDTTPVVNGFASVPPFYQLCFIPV

Cytochrome P450 2C19 = Cytochrome P450 2C19 (Homo sapiens, UniProt P33261); assay: Cytochrome panel assay with activity outcomes. Panel member name: p450-cyp2c19 Compounds with AC50 equal or less than 10 uM are considered active; assay type: functional; conditions: read-out: AC50
Cytochrome P450 2C19, sequence (P33261 whole entry): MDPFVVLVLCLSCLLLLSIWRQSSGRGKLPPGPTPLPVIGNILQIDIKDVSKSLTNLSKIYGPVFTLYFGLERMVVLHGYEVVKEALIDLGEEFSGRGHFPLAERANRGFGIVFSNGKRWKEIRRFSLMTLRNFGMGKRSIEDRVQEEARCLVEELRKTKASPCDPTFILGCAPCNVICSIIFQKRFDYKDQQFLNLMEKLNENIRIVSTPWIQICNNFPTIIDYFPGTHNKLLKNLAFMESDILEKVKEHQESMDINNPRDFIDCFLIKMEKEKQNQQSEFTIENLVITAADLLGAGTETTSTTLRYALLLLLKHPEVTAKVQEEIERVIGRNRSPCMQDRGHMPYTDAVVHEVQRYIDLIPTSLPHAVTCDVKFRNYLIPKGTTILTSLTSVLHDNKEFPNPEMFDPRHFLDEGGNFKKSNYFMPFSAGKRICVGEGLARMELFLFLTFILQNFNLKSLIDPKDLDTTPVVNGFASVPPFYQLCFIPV

Hexokinase HKDC1 = target: T6, Hexokinase HKDC1 (Homo sapiens, UniProt Q2TB90); assay: HKDC1 hexokinase activators, dose response, biochemical, W721R variant (AID 504730); assay type: functional
T6 sequence (Q2TB90 whole entry): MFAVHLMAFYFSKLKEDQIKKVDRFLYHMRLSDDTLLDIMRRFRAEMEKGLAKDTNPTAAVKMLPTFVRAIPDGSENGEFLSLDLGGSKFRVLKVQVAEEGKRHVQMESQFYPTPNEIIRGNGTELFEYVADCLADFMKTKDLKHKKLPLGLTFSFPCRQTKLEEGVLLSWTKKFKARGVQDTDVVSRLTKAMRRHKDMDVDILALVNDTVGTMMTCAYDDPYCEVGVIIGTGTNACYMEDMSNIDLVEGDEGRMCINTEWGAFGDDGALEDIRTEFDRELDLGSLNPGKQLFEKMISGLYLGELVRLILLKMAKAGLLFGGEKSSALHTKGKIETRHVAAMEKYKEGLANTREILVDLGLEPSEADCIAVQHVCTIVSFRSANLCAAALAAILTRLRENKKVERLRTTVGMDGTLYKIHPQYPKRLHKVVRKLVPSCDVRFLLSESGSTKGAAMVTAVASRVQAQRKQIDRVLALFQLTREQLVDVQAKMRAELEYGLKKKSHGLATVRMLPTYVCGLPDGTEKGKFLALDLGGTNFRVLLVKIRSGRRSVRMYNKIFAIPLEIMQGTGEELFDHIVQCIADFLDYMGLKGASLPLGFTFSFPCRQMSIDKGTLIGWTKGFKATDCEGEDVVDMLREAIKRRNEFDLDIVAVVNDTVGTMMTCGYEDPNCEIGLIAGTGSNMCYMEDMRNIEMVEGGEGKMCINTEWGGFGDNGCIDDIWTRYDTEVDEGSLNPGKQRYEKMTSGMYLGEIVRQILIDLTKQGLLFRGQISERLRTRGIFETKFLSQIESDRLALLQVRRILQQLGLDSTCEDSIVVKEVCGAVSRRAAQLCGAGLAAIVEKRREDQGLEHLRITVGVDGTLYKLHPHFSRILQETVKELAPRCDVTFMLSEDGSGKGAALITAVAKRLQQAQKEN

Hexokinase-1 = target: T7, Hexokinase-1 (Homo sapiens, UniProt P19367); assay: hexokinase 1 activators, dose response, selectivity assay for HKDC1 activator project, biochemical (AID 504762); assay type: functional
T7 sequence (P19367 whole entry): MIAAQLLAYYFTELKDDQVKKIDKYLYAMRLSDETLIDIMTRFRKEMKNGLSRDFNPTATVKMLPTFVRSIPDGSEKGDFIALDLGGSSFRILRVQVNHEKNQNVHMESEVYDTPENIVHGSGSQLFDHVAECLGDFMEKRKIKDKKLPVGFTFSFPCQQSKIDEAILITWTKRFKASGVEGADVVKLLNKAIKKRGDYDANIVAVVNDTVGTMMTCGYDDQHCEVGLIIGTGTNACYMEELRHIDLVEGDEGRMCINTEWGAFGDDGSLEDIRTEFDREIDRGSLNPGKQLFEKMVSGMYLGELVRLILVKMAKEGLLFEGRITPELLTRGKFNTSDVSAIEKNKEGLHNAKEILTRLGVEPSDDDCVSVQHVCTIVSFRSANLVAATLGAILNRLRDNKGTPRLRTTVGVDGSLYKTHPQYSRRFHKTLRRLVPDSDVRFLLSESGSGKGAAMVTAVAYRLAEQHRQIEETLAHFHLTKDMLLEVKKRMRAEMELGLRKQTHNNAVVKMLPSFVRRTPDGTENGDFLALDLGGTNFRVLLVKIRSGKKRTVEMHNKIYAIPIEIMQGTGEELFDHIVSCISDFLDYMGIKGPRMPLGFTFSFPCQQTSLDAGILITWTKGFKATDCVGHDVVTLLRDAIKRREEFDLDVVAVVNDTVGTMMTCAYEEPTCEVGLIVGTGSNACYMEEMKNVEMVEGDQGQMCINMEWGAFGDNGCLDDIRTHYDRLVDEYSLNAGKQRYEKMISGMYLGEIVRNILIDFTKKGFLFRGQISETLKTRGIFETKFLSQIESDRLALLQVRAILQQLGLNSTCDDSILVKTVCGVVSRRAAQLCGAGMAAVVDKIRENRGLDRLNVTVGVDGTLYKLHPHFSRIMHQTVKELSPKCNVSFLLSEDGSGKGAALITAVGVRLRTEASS

[21] = target: T8, Mannose-6-phosphate isomerase (Homo sapiens, UniProt P34949); assay: human PMI inhibitors, high substrate, primary screen, biochemical, fluorescence intensity, high mannose 6-phosphate (AID 1220)
T8 sequence (P34949 whole entry): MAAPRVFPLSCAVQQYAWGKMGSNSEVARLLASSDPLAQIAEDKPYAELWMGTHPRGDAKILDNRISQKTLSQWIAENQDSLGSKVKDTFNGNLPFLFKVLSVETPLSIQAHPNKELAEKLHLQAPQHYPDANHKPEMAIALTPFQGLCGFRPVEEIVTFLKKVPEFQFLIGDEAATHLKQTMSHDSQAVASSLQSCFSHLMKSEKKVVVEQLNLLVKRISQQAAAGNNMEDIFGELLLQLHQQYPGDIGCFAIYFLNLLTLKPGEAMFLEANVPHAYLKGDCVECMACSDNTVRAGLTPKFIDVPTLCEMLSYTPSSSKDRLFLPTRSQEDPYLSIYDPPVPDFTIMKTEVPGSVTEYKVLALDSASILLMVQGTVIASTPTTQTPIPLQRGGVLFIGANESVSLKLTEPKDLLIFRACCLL

[22] = target: Glucose-6-phosphate 1-dehydrogenase (Homo sapiens, UniProt P11413); assay: human G6PD enzyme inhibitors, dose response, selectivity assay for P. falciparum G6PD inhibitor project, biochemical, fluorescence (AID 504792); assay type: functional
Glucose-6-phosphate 1-dehydrogenase, sequence (P11413 whole entry): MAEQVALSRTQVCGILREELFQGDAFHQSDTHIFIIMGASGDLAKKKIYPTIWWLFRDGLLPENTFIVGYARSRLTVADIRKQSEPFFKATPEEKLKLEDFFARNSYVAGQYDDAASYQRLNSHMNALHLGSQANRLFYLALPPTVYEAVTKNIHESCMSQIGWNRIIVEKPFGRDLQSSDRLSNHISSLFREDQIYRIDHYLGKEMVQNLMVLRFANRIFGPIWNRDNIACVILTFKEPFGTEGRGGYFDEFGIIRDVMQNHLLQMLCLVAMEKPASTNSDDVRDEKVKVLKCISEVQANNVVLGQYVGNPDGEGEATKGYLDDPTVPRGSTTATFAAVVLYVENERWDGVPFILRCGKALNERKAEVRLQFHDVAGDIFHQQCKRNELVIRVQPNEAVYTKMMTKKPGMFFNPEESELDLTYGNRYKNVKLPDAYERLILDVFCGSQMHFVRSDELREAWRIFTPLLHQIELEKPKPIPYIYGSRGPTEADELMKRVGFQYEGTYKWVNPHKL

## COc1cccc2c1C(=O)c1c(O)c3c(c(O)c1C2=O)C[C@@](O)(C(=O)CO)C[C@@H]3O[C@H]1C[C@H](N)[C@@H](O)[C@H](C)O1 [EPIRUBICIN HYDROCHLORIDE]
BJ
  EC50: < 0.104 µM (active)
[1]
  IC50: > 80 µM (inactive)
[2]
  CC50: 18.7 µM (active)

## COc1ccc(-n2cc3c(-c4ccc(-c5ccccc5)cc4)nnc(C)c3n2)cc1
Cannabinoid receptor 2 [3]
  IC50: 2.09 µM (active)
[4]
  IC50: 4.74 µM (active)
[5]
  IC50: > 32 µM (inactive)
Cannabinoid receptor 1 [6]
  IC50: 1.04 µM (active)
Cannabinoid receptor 2 [7]
  EC50: > 32 µM (inactive)
Cannabinoid receptor 1 [8]
  EC50: > 32 µM (inactive)
[9]
  EC50: > 32 µM (inactive)

## Cc1cccc(OCC(=O)N2CCN(c3nc(C)nc4sc5c(c34)CCCC5)CC2)c1
Cannabinoid receptor 2 [3]
  IC50: > 11 µM (inactive)
[4]
  IC50: > 32 µM (inactive)
[5]
  IC50: > 32 µM (inactive)
Cannabinoid receptor 1 [6]
  IC50: 1.66 µM (active)
Cannabinoid receptor 2 [7]
  EC50: > 32 µM (inactive)
Cannabinoid receptor 1 [8]
  EC50: > 32 µM (inactive)
[9]
  EC50: > 32 µM (inactive)

## COc1cccc2c1C(=O)c1c(O)c3c(c(O)c1C2=O)C[C@@](O)(C(C)=O)C[C@@H]3O[C@H]1C[C@H](N)[C@H](O)[C@H](C)O1 [DAUNORUBICIN]
Cytochrome P450 1A2
  AC50: 31.6 µM (inconclusive)
[10]
  IC50: 0.188 µM (active)
[11]
  IC50: 0.648 µM (active)
[12]
  IC50: 0.0509 µM (active)
[13]
  IC50: 1.47 µM (active)
[14]
  IC50: 0.0464 µM (active)
Cytochrome P450 2D6 [15]
  AC50: inactive
[16]
  IC50: 0.0102 µM (active)
[17]
  IC50: 0.0554 µM (active)
[18]
  IC50: 0.118 µM (active)
[19]
  IC50: 0.338 µM (active)

## CCOC(=O)C1C(=O)C=C(/C=C/c2ccccc2)CC1c1ccc(Cl)cc1 (configuration not stated)
Cytochrome P450 3A4
  AC50: inconclusive
Cytochrome P450 2D6 [20]
  AC50: 7.08 µM (inconclusive)
Cytochrome P450 2C9
  AC50: 1.41 µM (inconclusive)

## CC(C)OC(=O)/C(=C\C=C\c1ccccc1)NC(=O)c1ccccc1
Cytochrome P450 1A2
  AC50: 3.55 µM (inconclusive)
Cytochrome P450 2D6 [15]
  AC50: inconclusive
Cytochrome P450 2C9
  AC50: 2.82 µM (inconclusive)

## S=C(Nc1ccc(Cl)cc1)NC1CC2CCCC(C1)N2C1CCCC1 (configuration not stated)
Cytochrome P450 3A4
  AC50: inconclusive
Cytochrome P450 2C19
  AC50: 22.4 µM (inconclusive)

## COc1ccc(NC2=NN=C(c3ccc4c(c3)OCCO4)CS2)cc1
Hexokinase HKDC1
  EC50: 25 µM (inactive)
Hexokinase-1
  EC50: 23.9 µM (inactive)

## CCn1c2ccccc2c2nc3cc(S(=O)(=O)N4CCOCC4)ccc3nc21
Hexokinase HKDC1
  EC50: > 80 µM (inactive)
Hexokinase-1
  EC50: > 80 µM (inactive)
[21]
  IC50: 20 µM (active)
[22]
  IC50: > 80 µM (inactive)
